# Where “and” joins values, the source holds several entries; their conditions need not be identical. Identical values can stand only once. Marks after values point to notes of the source that are not given here. Where a SMILES comes first, the peptide text is derived from it. The star is where a group is joined. Myristoyl = CCCCCCCCCCCCCC(=O)*
# How the values were obtained:
# P. aeruginosa ATCC 9027 = conditions: planktonic cells, analyses performed in the previous study; cited from earlier work
# Source text: Table 2 Antimicrobial activity (MIC [µg/mL]) of lipopeptides 1–18 against planktonic cells. | column: P. aeruginosa ATCC 9027
# E. faecium ATCC 700221 = conditions: planktonic cells, analyses performed in the previous study; cited from earlier work
# Source text: However, enhanced activity with elongation of the hydrocarbon chain length in fatty acid residue and the change of serine position to 2 or 3 could be seen. […] Generally, the lo ...
# [1] = tested on: human red blood cells (RBCs); conditions: cited from earlier work
# K. aerogenes ATCC 13048 = conditions: planktonic cells, analyses performed in the previous study; cited from earlier work
# Source text: Table 2 Antimicrobial activity (MIC [µg/mL]) of lipopeptides 1–18 against planktonic cells. | column: K. aerogenes ATCC 13048
# [2] = tested on: K. pneumoniae ATCC 700603; conditions: planktonic cells, analyses performed in the previous study; cited from earlier work
# Source text: Table 2 Antimicrobial activity (MIC [µg/mL]) of lipopeptides 1–18 against planktonic cells. | column: K. pneumoniae ATCC 700603
# MTT assay, cytotoxicity = type: cell-based, human; conditions: HaCaT, 24 h incubation at 37 °C, 0.5–500 μg/mL, six replicates per concentration, repeated at least twice
# Experimental: To evaluate the cytotoxicity of the test peptides (IC50), the classic MTT assay on 96-well plates was performed for human keratinocytes (HaCaT) which were acquired from the ATCC. The assay was based on colorimetric determination of the cell metabolic activity where the color intensity reflected the number of live cells that could be measured spectrophotometrically. The cell line was cultured in a Dulbecco’s modified Eagle Medium (Invitrogen) supplemented with 10% fetal bovine serum (v/v), 100 units/mL of penicillin, 100 μg/mL of streptomycin, and 2 mM L-glutamine and was kept at 37 °C in a humidified 5% CO2 incubator. Briefly, a day after plating of 500 cells per well, a series of concentrations (0.5–500 μg/mL) of the test compounds were applied. DMSO was added to the control cells at a final concentration of 1.0% (v/v), which was related to the maximum concentration of the solvent compounds used in the experiment. After 24 h of incubation at 37 °C (humidified 5% CO2 incubator) with the peptides, a medium containing 1 mg/mL of MTT was added to the wells up to a final concentration of 0.5 mg/mL. Subsequently, the plates were incubated at 37 °C for 4 h. Then, the medium was aspirated, and the formazan product was solubilized with DMSO. The background absorbance at 630 nm was subtracted from that at 570 nm for each well (Epoch, BioTek Instruments, Winooski, VT, USA). Six replicates were conducted for each concentration. All experiments were repeated at least twice and the resulting IC50 values were calculated with a GraFit 7 software (v. 7.0, Erithacus, Berkley, CA, USA).
# The selectivity indexes were calculated for all the strains as IC50/MIC. According to IC50, in most cases, glycosylation caused only a slight decrease in toxicity. However, in contrast with SI calculated for HC50, the differences between USCLs and gUSCLs are not so distinct. […] Moreover, toxicity of USCLs and gUSCLs is high and exceeds their antimicrobial activity. The lipopetides were not selective against Gram-negative strains (K. pneumoniae, A. baumannii, P. aeruginosa, K. aerogenes) over human cells. A few USCLs were selective (SI > 1) against E. faecium and S. aureus with SI up to 1.87; and some gUSCLs were selective against E. faecium but not against S. aureus, with SI between 0.63 and 1.73. […] In this case, SI of gUSCLs was noticeably […] than that of corresponding parent USCLs (2.07, 1.99, 2.67 vs. 2.53, 2.36, 3.46, respectively). Selectivity indexes were plotted against adjusted retention time (Figures S15–S21). A moderate linear correlation was found in USCLs and K. pneumoniae, C. glabrata, and gUSCLs and K. pneumoniae, K. aerogenes (R^2 between 0.6064 and 0.6481). A relatively high linear correlation was obtained for USCLs and K. aerogenes (R^2 of 0.8214) and also for gUSCLs and C. glabrata (R^2 of 0.9223).
# [3] = Determination of peptide hydrophobicity with RP-HPLC (adjusted retention time); type: physicochemical; conditions: RP-HPLC as measure of hydrophobicity; Waters X-Bridge Shield RP-18 3.0 × 100 mm, 3.5 μm; linear 20–80% acetonitrile in water over 30 min, 0.1% TFA; 0.5 mL/min; 25.0 °C; peptide 1 g/L in water (0.1% TFA); UV 214 nm; triplicate
# Experimental: To determine peptide hydrophobicity, a Waters Alliance e2695 system with a Waters 2998 PDA Detector was used. All analyses were carried out on a Waters X-Bridge Shield RP-18 column (3.0 × 100 mm, 3.5 μm particle size, 130 Å pore size). The peptides were dissolved in water (0.1% TFA, v/v) up to a concentration of 1 g/L. UV detection at 214 nm was used, and samples (10 μL) were eluted with a linear 20–80% acetonitrile gradient in deionized water over 30 min at 25.0 ± 0.1 °C. The mobile phase flow rate was 0.5 mL/min. Both eluents contained 0.1% (v/v) of TFA. Each peptide sample was analyzed in triplicate. Maximum standard deviation and coefficient of variation were 0.046 and 0.23%, respectively.
# After synthesis and purification, all the products were analyzed with MS and HPLC to confirm purity and identity of the compounds. […] The chromatographic analyses were performed with RP-HPLC; retention time refers to hydrophobicity of the lipopeptide.
# C. glabrata ATCC 15126 = type: cell-based, Candida glabrata; conditions: ATCC 15126, 24 h
# Experimental: The Acinetobacter baumannii ATCC BAA-1605, Enterococcus faecium ATCC 700221, Klebsiella aerogenes ATCC 13048, Klebsiella pneumoniae ATCC 700603, Pseudomonas aeruginosa ATCC 9027, Staphylococcus aureus ATCC 33591, Candida glabrata ATCC 15126, strains were acquired from the American Type Culture Collection (ATCC). All the strains were stored at −80 °C in Roti-Store cryo vials and were transferred into fresh Mueller–Hinton broth (MHB, Becton Dickinson, Warsaw, Poland) for bacteria or RPMI-1640 (Sigma-Aldrich, Steinheim, Germany) for fungi before the tests and incubated for 24 h at 37 °C. Then, the cultures were seeded on the Mueller–Hinton agar (BioMaxima, Lublin, Poland) or Sabouraud dextrose agar (SDA, BioMaxima, Lublin, Poland) plates, respectively, and incubated as just mentioned. These agar cultures were used for further microbiological assays. Cell densities for all assays were adjusted spectrophotometrically (Multiskan GO Microplate Spectrophotometer, Thermo Fisher Scientific, Vantaa, Finland) at 600 and 530 nm for bacteria and fungi, respectively.
# The MICs were determined using a broth microdilution method according to the Clinical and Laboratory Standard Institute guidelines. For this purpose, initial inoculums of bacteria (5 × 10^5 CFU/mL) in MHB and yeasts (2 × 10^3 CFU/mL) in RPMI-1640 with 2% D-glucose were exposed to the ranging concentration of lipopeptides (1–512 μg/mL) and incubated at 37 °C for 18 h and 24 h, respectively. The experiments were conducted on 96-well microtiter polystyrene plates (Kartell, Italy). The growth was assessed visually after incubation and the MIC was assumed as the lowest peptide concentration at which a noticeable growth of microorganisms was inhibited. All experiments were conducted in triplicate.
# S. aureus ATCC 33591 = conditions: planktonic cells, analyses performed in the previous study; cited from earlier work
# Source text: Table 2 Antimicrobial activity (MIC [µg/mL]) of lipopeptides 1–18 against planktonic cells. | column: S. aureus ATCC 33591
# [4] = tested on: A. baumannii ATCC BAA 1605; conditions: planktonic cells, analyses performed in the previous study; cited from earlier work
# Source text: Table 2 Antimicrobial activity (MIC [µg/mL]) of lipopeptides 1–18 against planktonic cells. | column: A. baumannii ATCC BAA 1605
# P. aeruginosa biofilm = tested on: P. aeruginosa biofilm; set-up: method as in PMID 33804887; conditions: P. aeruginosa biofilm (Gram-negative strains); previous studies; cited from earlier work
# S. aureus biofilm = tested on: S. aureus biofilm; set-up: method as in PMID 33804887; conditions: S. aureus ATCC 33591 biofilm; previous studies; cited from earlier work
# A. baumannii biofilm = tested on: A. baumannii biofilm; set-up: method as in PMID 33804887; conditions: A. baumannii biofilm (Gram-negative strains); previous studies; cited from earlier work
# K. pneumoniae biofilm = tested on: K. pneumoniae biofilm; set-up: method as in PMID 33804887; conditions: K. pneumoniae biofilm (Gram-negative strains); previous studies; cited from earlier work
Molecule,MIC (P. aeruginosa ATCC 9027),MIC (E. faecium ATCC 700221),HC50 (hemolytic activity) [1] [µg/mL],MIC (K. aerogenes ATCC 13048),MIC [2],"IC50 (MTT assay, cytotoxicity) [µg/mL]",Adjusted Retention Time [3] [min],MIC (C. glabrata ATCC 15126) [µg/mL],MIC (S. aureus ATCC 33591),MIC [4],MBEC (P. aeruginosa biofilm) [µg/mL],MBEC (S. aureus biofilm) [µg/mL],MBEC (A. baumannii biofilm) [µg/mL],MBEC (K. pneumoniae biofilm) [µg/mL]
"CCCCCCCCCCCCCC(=O)N[C@@H](CO)C(=O)N[C@@H](CCCNC(=N)N)C(=O)N[C@@H](CCCNC(=N)N)C(N)=O [Peptide 1, C14-SRR-NH2] (Myristoyl-Ser-Arg-Arg-NH2)",32 * µg/mL,16 µg/mL and 16 * µg/mL,41.54 ± 1.29,128 * µg/mL,128 * µg/mL,1.41 ± 0.29,16.55,32,16 * µg/mL,32 * µg/mL,,,,
C12-RR-NH2 [Peptide C12-RR-NH2],,,,,,,,,,,512,64,512,512

# Reference: paper PMC9855884, “Glycosylated Lipopeptides—Synthesis and Evaluation of Antimicrobial Activity and Cytotoxicity” (Biomolecules, 2023)
